We go through 23 compounds from PubChem BioAssay (NCI).

Some test systems named below: XF 498 CNS; DMS 114 small cell lung; KM20L2 colon; DMS 273 small cell lung; LXFL 529 NSCLC; M19-MEL melanoma; SNB-78 CNS; HOP-18 NSCLC; RXF-631 renal.
Experiment in all cases: inhibition of tumour cell growth, NCI panel, 48 h

Structures are written as SMILES.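 Results reflect a 48-hour exposure of cells in 96-well plates to compound at five concentrations. TGI marks complete inhibition of growth.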

Take `COC(=O)CC(C(C(=O)OCc1ccccc1)C(C)O)N1C(=O)OCC1c1ccccc1` (centres undefined): the TGI in the assay on XF 498 CNS, with DMS 114 small cell lung, in the assay with KM20L2 colon, with DMS 273 small cell lung, with LXFL 529 NSCLC and with M19-MEL melanoma was over 100 µM each time.
Turning to `COC1CC(O[C@H]2CC[C@@]3(C)C(=CCC4(O)C3CCC35C(=O)OC6(C)O[C@@]43CCC65)C2)OC(C)C1O` (some centres undefined), the TGI in the assay on XF 498 CNS, in the assay with SNB-78 CNS, in the assay on DMS 114 small cell lung, with HOP-18 NSCLC, in the assay with KM20L2 colon and in the assay on DMS 273 small cell lung was over 100 µM each time. Besides, the TGI in the assay on LXFL 529 NSCLC and in the assay with M19-MEL melanoma was over 100 µM throughout.
Consider `C=CCC1(CN(C)C)CC/C(=C\c2cc(OC)c(OC)c(OC)c2)C1=O` (centres undefined), for which the TGI in the assay with SNB-78 CNS is over 100 µM; in the assay with DMS 114 small cell lung, 39.5 µM; with HOP-18 NSCLC it was over 100 µM; in the assay with KM20L2 colon it was 44.4 µM; with LXFL 529 NSCLC, 35.2 µM; with M19-MEL melanoma it was over 100 µM. In addition, the TGI with RXF-631 renal was found to be 60.9 µM.
On to `COc1ccc2c(c1)c1ccc3c(c1n2C)C(=O)C=CC3=O`, for which the TGI was 32.1 µM in the assay on XF 498 CNS; 45.5 µM with SNB-78 CNS; 47.4 µM in the assay with DMS 114 small cell lung; 24.7 µM in the assay on HOP-18 NSCLC; over 57.3 µM with KM20L2 colon; over 56.3 µM with DMS 273 small cell lung. Further, the results for the TGI in the assay on LXFL 529 NSCLC, in the assay on M19-MEL melanoma and in the assay on RXF-631 renal were 30.2 µM, over 58.9 µM and over 45.5 µM, respectively.
`Cc1ccc(NC(=O)C(=O)C2C(=O)NC(=O)NC2=O)c(C)c1`: the TGI in the assay with SNB-78 CNS, in the assay on DMS 114 small cell lung, in the assay on HOP-18 NSCLC, with KM20L2 colon, in the assay on DMS 273 small cell lung and in the assay with LXFL 529 NSCLC was over 100 µM throughout. The TGI in the assay on M19-MEL melanoma and in the assay with RXF-631 renal was over 100 µM in each case.
As to `CO/S(=N/S(=O)(=O)c1ccccc1)c1ccccc1[N+](=O)[O-]` (centres undefined), the TGI in the assay on XF 498 CNS, in the assay on HOP-18 NSCLC, in the assay with KM20L2 colon, in the assay with DMS 273 small cell lung, in the assay on LXFL 529 NSCLC and with M19-MEL melanoma was over 100 µM each time. In the assay with RXF-631 renal, this compound showed a TGI of over 100 µM.
Take `CC(C)(Oc1ccc2c(=O)cc(-c3ccc(Cl)cc3)oc2c1)C(=O)Nc1c(Cl)cccc1Cl`: the TGI with XF 498 CNS, with SNB-78 CNS, in the assay with DMS 114 small cell lung, in the assay on HOP-18 NSCLC, in the assay on KM20L2 colon and in the assay on DMS 273 small cell lung was over 100 µM in each case. Moreover, the TGI in the assay with LXFL 529 NSCLC and with M19-MEL melanoma was over 100 µM throughout.
For the compound `CSc1nc2nccnc2c(=O)[nH]1`, the TGI in the assay on XF 498 CNS, in the assay with DMS 114 small cell lung, in the assay on HOP-18 NSCLC, in the assay on KM20L2 colon, in the assay on DMS 273 small cell lung and in the assay on LXFL 529 NSCLC was over 100 µM in each case. For the same compound, the TGI in the assay on M19-MEL melanoma is over 100 µM.
Regarding `[N-]=[N+]=C1C(=O)C2CC3CC1CC2C3` (centres undefined), the TGI in the assay on SNB-78 CNS, with DMS 114 small cell lung, with HOP-18 NSCLC, with KM20L2 colon, with DMS 273 small cell lung and in the assay on LXFL 529 NSCLC was over 100 µM in each case. The TGI in the assay with M19-MEL melanoma and in the assay on RXF-631 renal was over 100 µM throughout.
Take `COc1ccc(C2=NN(C(C)=O)c3nc4ccccc4nc3O2)cc1`: the TGI with XF 498 CNS is 49.2 µM; with DMS 114 small cell lung, over 100 µM; in the assay with HOP-18 NSCLC it was 88.9 µM; in the assay with DMS 273 small cell lung, over 100 µM; with LXFL 529 NSCLC, over 100 µM; in the assay with M19-MEL melanoma, over 100 µM. In the assay on RXF-631 renal, the TGI was over 100 µM.
As to `NC1=C(O)/C(=N/NS(=O)(=O)c2ccccc2)C(c2ccc3c(c2)OCO3)O1` (centres undefined), the TGI with SNB-78 CNS, with DMS 114 small cell lung, in the assay with HOP-18 NSCLC, with KM20L2 colon, in the assay on DMS 273 small cell lung and with LXFL 529 NSCLC was over 100 µM in each case. This compound also registered a TGI in the assay with M19-MEL melanoma of 83.4 µM.
For `COC(=O)C(/C(=N/N)C(=O)Nc1cc(Cl)ccc1Cl)c1nc2ccc([N+](=O)[O-])cc2[nH]c1=O` (centres undefined), the TGI in the assay on XF 498 CNS, in the assay with SNB-78 CNS, in the assay with DMS 114 small cell lung, in the assay with KM20L2 colon, with DMS 273 small cell lung and with LXFL 529 NSCLC was over 100 µM throughout.
For the compound `Cc1ccc([N+](=O)[O-])cc1NC(=O)C(=O)Cc1nc2ccc(C(=O)c3ccccc3)cc2[nH]c1=O`, the TGI in the assay with XF 498 CNS, in the assay with DMS 114 small cell lung, in the assay with HOP-18 NSCLC, in the assay on KM20L2 colon, in the assay with DMS 273 small cell lung and in the assay on LXFL 529 NSCLC was over 100 µM in each case. Besides, the TGI in the assay on M19-MEL melanoma and in the assay with RXF-631 renal was over 100 µM in each case.
`O=C(/C=C/c1ccc(-c2ccccc2)cc1)c1ccccc1`: the TGI with XF 498 CNS was 53.1 µM; with SNB-78 CNS it was over 100 µM; in the assay on DMS 114 small cell lung, 31.8 µM; in the assay on HOP-18 NSCLC it was over 100 µM; in the assay with LXFL 529 NSCLC, 42.2 µM; with M19-MEL melanoma, 48.5 µM. For the same compound, the TGI in the assay with RXF-631 renal was found to be 69 µM.
As for `CC(C)(C)OC(=O)NC(Cc1ccccc1)C(=S)N1CCCC1` (centres undefined), the TGI with XF 498 CNS, in the assay on SNB-78 CNS, in the assay on DMS 114 small cell lung, in the assay on HOP-18 NSCLC, in the assay on KM20L2 colon and in the assay on DMS 273 small cell lung was over 100 µM throughout. Moreover, the TGI with LXFL 529 NSCLC, with M19-MEL melanoma and in the assay with RXF-631 renal was over 100 µM each time.
On to `CC(=O)NNc1ncc(C(=O)/C=C/c2ccccc2C)s1`, for which the TGI in the assay on SNB-78 CNS, with DMS 114 small cell lung, in the assay on HOP-18 NSCLC, in the assay with KM20L2 colon, in the assay with DMS 273 small cell lung and in the assay with M19-MEL melanoma was over 100 µM each time. The TGI in the assay on RXF-631 renal was over 100 µM.
As to `CON1C(=O)C2(CCCCC2)C(=O)C12C=CC(C)CC2` (centres undefined), the TGI in the assay with XF 498 CNS, in the assay with SNB-78 CNS, in the assay on DMS 114 small cell lung, with KM20L2 colon, in the assay on DMS 273 small cell lung and with LXFL 529 NSCLC was over 100 µM in each case. Besides, the TGI with M19-MEL melanoma and with RXF-631 renal was over 100 µM in each case.
Consider `O=C(NC1CCCCC1)NC12CC3CC(CC(F)(C3)C1)C2`, for which the TGI in the assay with XF 498 CNS, with SNB-78 CNS, in the assay on DMS 114 small cell lung, with KM20L2 colon, with DMS 273 small cell lung and in the assay with LXFL 529 NSCLC was over 100 µM each time. The TGI in the assay with M19-MEL melanoma and in the assay with RXF-631 renal was over 100 µM in each case.
With `CC1=C(C(=O)O)N2C(=O)[C@@H](NC(=O)C(c3ccccc3)N3CSC(=S)N(C(C)C)C3)C2SC1` (some centres undefined), the TGI in the assay with XF 498 CNS, in the assay with SNB-78 CNS, with HOP-18 NSCLC, with KM20L2 colon, in the assay on DMS 273 small cell lung and in the assay on LXFL 529 NSCLC was over 100 µM throughout. In addition, the TGI in the assay with M19-MEL melanoma was over 100 µM.
For the compound `CC1=C(O)C(=O)C2C(=O)C1C(C)C2c1ccccc1` (centres undefined), the TGI with XF 498 CNS, in the assay with SNB-78 CNS, with DMS 273 small cell lung, with LXFL 529 NSCLC and in the assay on M19-MEL melanoma was over 100 µM each time.
In the case of `OC(c1cc2ccccc2[nH]1)C(O)(c1cc2ccccc2[nH]1)c1cc2ccccc2[nH]1` (centres undefined), the TGI in the assay with DMS 114 small cell lung was 29 µM; with KM20L2 colon, over 245 µM; in the assay on DMS 273 small cell lung it was 48.8 µM; with LXFL 529 NSCLC, 40.2 µM; with M19-MEL melanoma, 23.1 µM; in the assay with RXF-631 renal, 58.3 µM.
Take `CCCCN(C)CC(C(C)=O)C(c1ccccc1)c1c(O)c2ccccc2oc1=O` (centres undefined): the TGI with XF 498 CNS, in the assay with SNB-78 CNS, in the assay with DMS 114 small cell lung, in the assay with HOP-18 NSCLC, in the assay on KM20L2 colon and in the assay on DMS 273 small cell lung was over 100 µM in each case. In addition, the TGI with LXFL 529 NSCLC and in the assay with M19-MEL melanoma was over 100 µM in each case.
On to `Oc1ccc(O)c(-n2cccn2)c1`, for which the TGI is over 100 µM in the assay on XF 498 CNS; over 100 µM in the assay on SNB-78 CNS; 89.7 µM in the assay with DMS 114 small cell lung; over 100 µM with KM20L2 colon; over 100 µM in the assay with DMS 273 small cell lung; 38.9 µM in the assay on LXFL 529 NSCLC. Further, the TGI in the assay with M19-MEL melanoma was 76.1 µM; in the assay on RXF-631 renal it was over 100 µM.
